Assay results from US20120053119A1, “THERAPEUTIC METHOD FOR INCREASING PANCREATIC BETA CELL MASS” (priority 2009, published 2012).

Legend:
Type in all cases: cell-based
[1] = test system: INS-1 cells; experiment: Cell proliferation assay, BrdU incorporation; settings: SDF-1 10 nM overnight
Method: (§1) FIG. 6. Inhibition of apoptosis by SDF-1 in INS-1 and MIN-6 cells is reversed by knock-down of betacatenin. A. Western blot analysis of extracts from MIN6 cells that were mock treated, thapsigargin-treated (1 μM) and/or siRNA transfected (0.25 mg/ml), by using anti-serum against cleaved caspase-3 (upper panel), anti-serum against cleaved PARP (middle panel) and actin antibody (lower panel) as a loading control. B. Caspase-3 activity (fluorescence/mg proteinx105) of INS-1 or MIN6 cells mock treated, thapsigargin-treated (1 μM) and/or siRNA transfected (0.25 mg/ml). Results are presented as mean±SD for n=3 independent experiments, All values are relative to the first (leftmost) bar. Statistical significance is depicted as * (p<0.05) when compared with control values (leftmost bar) and # (<0.05) when compared with 1 mM thapsigargin treatment. C. Representative images are shown for TUNEL staining of INS-1 cells of n=3 independent experiments. Quantification of apoptotic cells is expressed as percent apoptotic cells relative to the total cells counted (lower left panel). […]
Cell Proliferation Assay Proliferation of INS-1 cells was determined by incorporation of BrdU into newly synthesized DNA of proliferating cells. […] BrdU staining was measured by the DELFIA cell proliferation kit (Perkin Elmer).

[2] = test system: alphaTC-1 cells; experiment: GLP-1 production in alphaTC-1 cells, RIA of media
Method: FIG. 20. […] Upper panel: AlphaTC-1 and alphaTCdeltaPC2 cells were incubated for 24 hrs and total GLP-1 secreted was measured in the media. Lower panel: AlphaTC-1 cells were treated with SDF-1 or SDF-1+exendin-4 (Exd4) for the times indicated. Media obtained from the cells was assayed with an RIA specific for the active GLP-1. The findings of increased expression of PC1/3 activity, as evidenced by the production of GLP-1. In the absence of PC2 in alphaTCdPC2 cells is consistent with the findings reported by Wideman et al from the Kieffer lab and by Webb et al in the Steiner lab. It appears that in the absence of PC2, PC13 is expressed. The appearance of GLP-1 between 1 and 4 hrs (lower panel) is consistent with the induction of PC1/3 expression shown above in […]. A most high priority in the experiments planned is to determine whether SDF-1 (and cytokines) induce the production of GLP-1 peptide in mouse islets, pending the availability of support required to do these studies.

[3] = test system: INS-1 or MIN6 cells; experiment: Thapsigargin-induced apoptosis, caspase-3 activity assay; settings: SDF-1 10 nM with thapsigargin 1 microM, 16 h
Method: as §1, with “Statistical significance is depicted as * (p<0.05) when compared with control values (leftmost bar) and # (<0.05) when compared with 1 mM thapsigargin treatment. C. Representative images are shown for TUNEL staining of INS-1 cells of n=3 independent experiments.” left out
Thapsigargin-induced apoptosis in INS-1 or MIN6 cells For western immuoblot assay (Cell Signaling), MIN6 cells were seeded into 6 well plates then treated with 1 microM thapsigargin or DMSO control for 16 h and apoptotic activity was measured by Western immunoblotting using antisera specific for cleaved (active) caspase-3 (Cell signaling #9661) and cleaved (active) PARP (Cell signaling #9548). For caspase-3 assay, INS-1 cells or MIN-6 cells in 24-well plates were treated with 1 microM thapsigargin or DMSO for 16 hand caspase-3 activity was determined (Molecular Probes). […]

[4] = test system: INS-1 cells; experiment: MTT assay of cell growth; settings: serum starved, SDF-1 10 nM, 48 hr
Method: as §1, with “panel). D. The proliferation rates of INS-1 cells after SDF-1 or Exd4 treatment are presented as relative BrdU and MTT incorporation values compared to that of control treated cells.” for “panel).”
MTT Assay Growth of INS-1 cells was determined by the MTT system. […]

[5] = test system: GLP-1 receptor (GLP-1R) mRNA; experiment: GLP-1R mRNA by RT-PCR in alphaTC-1 cells; settings: SDF-1 10 nM, by 4 hrs
Method: FIG. 21. SDF-1 induces the expression of the GLP-1 receptor (GLP-1R) mRNA in alphaTC-1 cells. […] RNA levels were determined by RT-PCR.

[6] = test system: Wnt signaling; experiment: Wnt signaling luciferase reporter assay (TOPflash/FOPflash) in INS-1 cells; settings: dose response
Method: Wnt signaling is indicated by the value of TOPflash luciferase activity divided by FOPflash activity. A. Time course of the TOPflash:FOPflash ratio of INS-1 cell treated with 1 nM SDF-1. B. Ratio of TOPflash to FOPflash activity in INS-1 cells treated with increasing doses of SDF-1. C. […] All values are relative to the value of the untreated INS-1 cells. Data are normalized for transfection efficiency by co-transfected beta-galactosidase and represent means±S.D. of three experiments.
All values are relative to the first (leftmost) bar. Statistical significance is depicted as * (p<0.05) when compared with control values (leftmost bar). Data are normalized for transfection efficiency by co-transfected beta-galactosidase and represent means±S.D. of three experiments.
Wnt Signaling Luciferase Reporter Assay (TOPflash) INS-1 cells were plated into 24-well dishes 24 hr before transfection with TOPflash or the mutant, control reporter, FOPflash (1 microg/well) using LipofectAMINE2000 (Invitrogen). Various concentrations of SDF-1 or AMD3100 were then added to the culture medium 24 h following transfection for the indicated period of time. In studies in which inhibitors were used, LY294002 (50 microM), PD98059 (10 microM) or SH-5 (10 nM) were added concomitantly with SDF-1. In studies in which wild-type (wt), dominant-negative (dn) or contitutively-active (ca) forms of kinase were used, dnTCF7L2, dnGSK3beta, caGSK3beta, dnAkt, or caAkt (0.5 microg/well) was cotransfected with TOPflash. Luciferase activity in transfected cells was determined with a luciferase assay kit (Promega).
We examined SDF-1 induction of Wnt signaling using a Wnt signaling reporter assay (TOPflash/FOPflash). The TOPflash and FOPflash constructs contain the luciferase reporter either under the control of consensus TCF7L2-binding sites or mutated TCF7L2-binding sites, respectively. Luciferase activity was measured during 4 hr after addition of 1 nM SDF-1 (FIG. 3A).

[7] = test system: Wnt signaling; experiment: Wnt signaling reporter (beta-galactosidase) in isolated islets of TopGal mouse; settings: SDF-1 1 nM, isolated TopGal mouse islets
Excerpt: A. Isolated islets express reporter-driven beta-galactosidase. The dark regions mark the expression of beta-galactosidase, an indicator of the activation of the Wnt signaling reporter LacZ transgene. […] B. Polymerase chain reaction showing changes in beta-galactosidase mRNA levels in islets shown in panel A.
Isolated mouse pancreatic islets Mouse islets were isolated (Lacy PE (1994) Pancreatic islet cell transplant. Mt Sinai J. Med. 61:23-31.) from the pancreata of TopGal reporter mice transgenic for the LEF-LacZ Wnt signaling reporter (DasGupta R, Fuchs E (1999) Development. 1999 126:4557-4568.). Freshly isolated islets were treated for 4 hrs with SDF-1 with and without the addition of the Galphai/o inhibitor pertussis toxin (PTX) or the CXCR4 antagonist AMD3100. Betagalactosidase activity was determined by incubation of the islets with X-gal for 6 hrs.
Polymerase chain reaction analyses of betagalactosidase mRNA levels in isolated mouse islets Islets from TopGal mice were harvested after treatments with SDF-1, SDF-1+AMD3100, and SDF-1+pertussis toxin. RNA was extracted and beta galactosidase mRNA levels were measured by PCR using a SYBR Green QPCR kit (Stratagene) with the primers as described in Liu Z, Habener J F 2008 Glucagon-like Peptide-1 Activation of TCF7L2-dependent Wnt Signaling Enhances Pancreatic Beta Cell Proliferation. […]

[8] = test system: INS-1 cells; experiment: Thapsigargin-induced apoptosis, TUNEL staining; settings: co-incubation with SDF-1
Method: as §1
DAPI (nuclei fluorescence) and TUNEL staining For the terminal deoxynucleotidyl transferase mediated dUTP nick end labeling (TUNEL) assay, cells seeded in 4-well chamber slides (Lab-Tak) were treated with thapsigargin and TUNEL assay performed (DeadEnd™ Fluorimetric TUNEL System kit, Promega). […]

SDF-1: small, secreted 70 amino acid peptide chemokine, SEQ ID NO: 1, ligand of CXCR4
effect on proliferation of INS-1 cells, BrdU incorporation [1]: no detectable effects | production of processed GLP-1 peptide [2]: induces the production of processed GLP-1 peptide | effect on thapsigargin-induced caspase-3 activity (proapoptotic effect) [3]: attenuated | effect on proliferation of INS-1 cells, MTT assay [4]: no detectable effects | GLP-1R mRNA expression [5]: induces the expression of GLP-1R | SDF-1 concentration giving maximum Wnt signaling response (TOPflash/FOPflash) [6]: 0.4 nM | activation of Wnt signaling (beta-galactosidase) in TopGal islets [7]: activates Wnt signaling | effect on thapsigargin-increased number of TUNEL positive cells [8]: inhibited
